Test results from patent publication US20220071971A1, “MACROCYCLIC COMPOUNDS AND THEIR USE IN THE TREATMENT OF DISEASE” (NOVARTIS AG, priority 2018, published 2022).
pEC50: −log10 of the molar value.

Target: T1, delF508-CFTR (Homo sapiens, UniProt P13569, DEL508-508)
T1 construct: expressed in transfected cells
Experiment: Measurement of delF508-CFTR-HRP surface expression in CFBE41o- cells
Format: cell-based
Conditions: for Emax: CFBE41o-, efficacy relative to reference compound 3-(6-(1-(2,2-difluorobenzo[d][1,3]dioxol-5-yl)cyclopropane-1-carboxamido)-3-methylpyridin-2-yl)benzoic acid, read-out: DelF508-CFTR-HRP Amax %; for pEC50: HRP-tagged delF508-CFTR surface expression, CFBE41o- cells, 24 h with compound, 10-point curve, highest concentration 10 μM
Source text: Measurement of deIF508-CFTR-HRP Surface Expression in CFBE41o-Cells
This assay quantifies the cell surface expressions of the mutant CFTR channel using an extracellular HRP tag.
A cellular assay was developed to measure surface expression of horseradish peroxidase (HRP) tagged delF508-CFTR in the human bronchial epithelial immortalized CFBE41o-cell line (Phuan, P. W., et al, (2014) Molecular Pharmacology 86:42-51). Specifically, the HRP sequence was inserted into the fourth extracellular loop of delF508-CFTR and stably expressed in CFBE41o-cells. Cells were seeded in 384 well plate at a density of 5000 cells/well and incubated at 37° C. for 12 to 24 hours in medium (Gibco MEM #11095, 10% FBS, 10 mM HEPES, […], 200 μg/mL G418, 3 μg/mL Puromycin). The delF508-CFTR-HRP expression was induced with 500 ng/mL doxycycline (Sigma D-9891, dissolved in H2O and sterile filtered) in medium and the cells were incubated at 37° C. for 48 h. Old medium was removed and fresh medium was added containing 500 ng/mL doxycycline and unknown test compound at required test concentration in DMSO, not exceeding 0.5% final DMSO concentration. The highest concentration tested was 10 μM with a 10-point concentration response curve using a 3-fold dilution. After addition of compounds, the cells were incubated for 24 h at 37° C. On the final day, cells were washed four times in PBS containing 1 mM MgCl2 and 0.1 mM CaCl2. HRP-Substrate (SuperSignal ELISA Pico, Fisher #37069) 20 μl/well was added and the luminescence signal was determined (Viewlux, Perkin Elmer). Light was emitted upon addition of exogenous HRP-Substrate only when delF508-CFTR-HRP reached the cell surface and the HRP tag was accessible to the HRP-Substrate (note: HRP-Substrate cannot cross the lipid bilayer to reach delF508-CFTR-HRP misfolded within the cell).
The median activity for the lowest concentration of the compounds on each assay plate was calculated and this value was used to normalize the signal for each well on the respective plate. Three replicates at each concentrations for every compound were run to determine one EC50. The median value was determined and used to calculate compound activities as described below. Effective half maximal values (EC50) were calculated for each compound by performing logistic regression on measured dose-response data points using the equation: […]
where “Y” is the observed activity, “Bottom” is the lowest observed value, “Top” is the highest observed value, and the “Hill coefficient” gives the largest absolute value of the slope. The curve fitting is carried out by a curve fitting program implemented at GNF using Matlab (Mathworks).
The dose response curves also were used to calculate Fold Change (FC) using the equation: […]
Compound efficacy relative to the reference compound 3-(6-(1-(2,2-difluorobenzo[d][1,3]dioxol-5-yl)cyclopropane-1-carboxamido)-3-methylpyridin-2-yl)benzoic acid was determined using the following formula: […]

T1 sequence (P13569 with tags, fused parts or gaps DEL508-508): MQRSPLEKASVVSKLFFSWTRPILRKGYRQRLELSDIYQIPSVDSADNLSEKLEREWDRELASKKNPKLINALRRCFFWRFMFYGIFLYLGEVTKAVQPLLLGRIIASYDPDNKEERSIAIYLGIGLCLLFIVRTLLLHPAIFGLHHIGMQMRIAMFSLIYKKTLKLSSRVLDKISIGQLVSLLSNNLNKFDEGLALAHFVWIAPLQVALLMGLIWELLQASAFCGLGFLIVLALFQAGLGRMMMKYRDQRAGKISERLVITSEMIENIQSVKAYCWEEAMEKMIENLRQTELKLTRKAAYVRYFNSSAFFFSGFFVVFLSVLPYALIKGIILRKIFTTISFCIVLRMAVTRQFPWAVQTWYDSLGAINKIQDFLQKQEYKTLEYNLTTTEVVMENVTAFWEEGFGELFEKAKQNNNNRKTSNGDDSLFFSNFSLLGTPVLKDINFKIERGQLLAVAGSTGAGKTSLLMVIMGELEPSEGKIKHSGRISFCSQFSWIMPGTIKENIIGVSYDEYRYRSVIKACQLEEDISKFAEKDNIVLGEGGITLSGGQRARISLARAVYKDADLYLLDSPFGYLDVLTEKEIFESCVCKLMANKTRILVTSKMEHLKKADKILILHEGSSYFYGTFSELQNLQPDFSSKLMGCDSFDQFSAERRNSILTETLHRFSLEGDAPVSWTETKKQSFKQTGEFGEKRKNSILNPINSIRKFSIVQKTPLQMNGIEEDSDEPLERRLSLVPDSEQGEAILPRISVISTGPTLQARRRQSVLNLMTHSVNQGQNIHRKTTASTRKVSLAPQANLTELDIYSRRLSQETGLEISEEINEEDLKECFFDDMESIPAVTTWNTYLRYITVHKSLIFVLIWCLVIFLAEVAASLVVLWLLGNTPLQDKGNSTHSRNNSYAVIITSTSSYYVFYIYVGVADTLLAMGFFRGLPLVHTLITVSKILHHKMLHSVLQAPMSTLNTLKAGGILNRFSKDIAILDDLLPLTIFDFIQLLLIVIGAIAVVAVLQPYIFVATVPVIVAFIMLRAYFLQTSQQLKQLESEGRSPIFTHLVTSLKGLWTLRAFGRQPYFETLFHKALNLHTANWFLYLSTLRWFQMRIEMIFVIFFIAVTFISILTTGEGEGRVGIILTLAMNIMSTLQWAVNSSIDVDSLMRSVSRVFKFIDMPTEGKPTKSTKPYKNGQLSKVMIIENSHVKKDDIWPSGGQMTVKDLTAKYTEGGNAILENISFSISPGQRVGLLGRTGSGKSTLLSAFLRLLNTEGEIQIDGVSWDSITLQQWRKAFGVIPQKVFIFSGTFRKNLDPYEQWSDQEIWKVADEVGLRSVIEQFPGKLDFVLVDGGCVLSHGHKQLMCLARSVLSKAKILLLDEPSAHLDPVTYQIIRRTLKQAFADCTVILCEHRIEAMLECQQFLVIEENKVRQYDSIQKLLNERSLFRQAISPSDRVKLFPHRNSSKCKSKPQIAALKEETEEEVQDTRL

| Emax [%] | pEC50 | Structure (SMILES) |
| --- | --- | --- |
| 506 | 6.58 | O=S1(=O)Nc2ccc(C(F)(F)F)c(n2)-c2ccccc2CCCCCN(C[C@H](O)[C@@H](O)CO)c2cccc1n2 [Compound 129, 2^3-(trifluoromethyl)-6-((2S,3S)-2,3,4-trihydroxybutyl)-4-thia-3,6-diaza-2,5(2,6)-dipyridina-1(1,2)-benzenacycloundecaphane 4,4-dioxide] |
|  | 5.64 | O=C(O)CCCN1CCCOCc2ccccc2-c2nc(ccc2C(F)(F)F)NS(=O)(=O)c2cccc1n2 [Compound 102, 4-(4,4-dioxido-2^3-(trifluoromethyl)-10-oxa-4-thia-3,6-diaza-2,5(2,6)-dipyridina-1(1,2)-benzenacycloundecaphane-6-yl)butanoic acid] |
| 186 | 6.41 | O=S1(=O)Nc2ccc(C(F)(F)F)c(n2)-c2ccccc2CCCCC(CCCO)Oc2cccc1n2 (stereo not shown) [Compound 109, 7-(3-hydroxypropyl)-2^3-(trifluoromethyl)-6-oxa-4-thia-3-aza-2,5(2,6)-dipyridina-1(1,2)-benzenacycloundecaphane 4,4-dioxide] |
|  | 6.73 | O=S1(=O)Nc2ccc(C(F)(F)F)c(n2)-c2ccccc2CCCCCCCN(CCCCCO)c2cccc1n2 [Compound 41, 6-(5-hydroxypentyl)-2^3-(trifluoromethyl)-4-thia-3,6-diaza-2,5(2,6)-dipyridina-1(1,2)-benzenacyclotridecaphane 4,4-dioxide] |
|  | 6.66 | O=S1(=O)Nc2ccc(C(F)(F)F)c(n2)-c2ccccc2CCCCCCCN(CCCCO)c2cccc1n2 [Compound 40, 6-(4-hydroxybutyl)-2^3-(trifluoromethyl)-4-thia-3,6-diaza-2,5(2,6)-dipyridina-1(1,2)-benzenacyclotridecaphane 4,4-dioxide] |
| 592 | 6.16 | O=S1(=O)Nc2ccc(C(F)(F)F)c(n2)-c2cc(F)ccc2OCCCCN(CCCCO)c2cccc1n2 [Compound 23, 1^5-fluoro-6-(4-hydroxybutyl)-2^3-(trifluoromethyl)-11-oxa-4-thia-3,6-diaza-2,5(2,6)-dipyridina-1(1,2)-benzenacycloundecaphane 4,4-dioxide] |
| 367 | 5.77 | CN1CCCN(C)c2ncccc2-c2nc(ccc2C(F)(F)F)NS(=O)(=O)c2cccc1n2 [Compound 9, 6,10-dimethyl-2^3-(trifluoromethyl)-4-thia-3,6,10-triaza-1(3,2),2,5(2,6)-tripyridinacyclodecaphane 4,4-dioxide] |
| 226 | 5.92 | O=S1(=O)Nc2ccc(C(F)(F)F)c(n2)-c2ccccc2CCCCCN(CCN2CCCC2)c2cccc1n2 [Compound 122, 6-(2-(pyrrolidin-1-yl)ethyl)-2^3-(trifluoromethyl)-4-thia-3,6-diaza-2,5(2,6)-dipyridina-1(1,2)-benzenacycloundecaphane 4,4-dioxide] |
| 435 | 6.56 | O=S1(=O)Nc2ccc(C(F)(F)F)c(n2)-c2ccccc2CCCCCN(CC(O)CO)c2cccc1n2 (stereo not shown) [Compound 128, 6-(2,3-dihydroxypropyl)-2^3-(trifluoromethyl)-4-thia-3,6-diaza-2,5(2,6)-dipyridina-1(1,2)-benzenacycloundecaphane 4,4-dioxide] |
| 764 | 6.36 | O=CCCCN1CCCCCc2ccccc2-c2nc(ccc2C(F)(F)F)NS(=O)(=O)c2cccc1n2 [Compound 73, 4-(4,4-dioxido-2^3-(trifluoromethyl)-4-thia-3,6-diaza-2,5(2,6)-dipyridina-1(1,2)-benzenacycloundecaphane-6-yl)butanal] |
| 705 | 6.29 | O=S1(=O)Nc2ccc(C(F)(F)F)c(n2)-c2ccccc2CCCCCNc2cccc1n2 [Compound 118, 2^3-(trifluoromethyl)-4-thia-3,6-diaza-2,5(2,6)-dipyridina-1(1,2)-benzenacycloundecaphane 4,4-dioxide] |
| 564 | 6.39 | CN1CCCCCCN(C)c2ncccc2-c2nc(ccc2C(F)(F)F)NS(=O)(=O)c2cccc1n2 [Compound 8, 6,13-dimethyl-2^3-(trifluoromethyl)-4-thia-3,6,13-triaza-1(3,2),2,5(2,6)-tripyridinacyclotridecaphane 4,4-dioxide] |
| 580 | 6.21 | O=S1(=O)Nc2ccc(C(F)(F)F)c(n2)-c2cc(F)ccc2CCCCCNc2cccc1n2 [Compound 31, 1^5-fluoro-2^3-(trifluoromethyl)-4-thia-3,6-diaza-2,5(2,6)-dipyridina-1(1,2)-benzenacycloundecaphane 4,4-dioxide] |
| 169 | 5.90 | O=S1(=O)Nc2ccc(Cl)c(n2)-c2cccnc2OCCCCCNc2cccc1n2 [Compound 107, 2^3-chloro-12-oxa-4-thia-3,6-diaza-1(3,2),2,5(2,6)-tripyridinacyclododecaphane 4,4-dioxide] |
| 517 | 6.84 | O=S1(=O)Nc2ccc(C(F)(F)F)c(n2)-c2ccccc2CCCCCN(CCCO)c2cccc1n2 [Compound 29, 6-(3-hydroxypropyl)-2^3-(trifluoromethyl)-4-thia-3,6-diaza-2,5(2,6)-dipyridina-1(1,2)-benzenacycloundecaphane 4,4-dioxide] |
| 737 | 6.25 | O=C(O)C1(CN2CCCCCc3ccccc3-c3nc(ccc3C(F)(F)F)NS(=O)(=O)c3cccc2n3)CC1 [Compound 94, 1-((4,4-dioxido-2^3-(trifluoromethyl)-4-thia-3,6-diaza-2,5(2,6)-dipyridina-1(1,2)-benzenacycloundecaphane-6-yl)methyl)cyclopropane-1-carboxylic acid] |
| 74.4 | 5.54 | O=C(O)CN1CCCCOc2ccccc2-c2nc(ccc2C(F)(F)F)NS(=O)(=O)c2cccc1n2 [Compound 4, 2-(4,4-dioxido-2^3-(trifluoromethyl)-11-oxa-4-thia-3,6-diaza-2,5(2,6)-dipyridina-1(1,2)-benzenacycloundecaphane-6-yl)acetic acid] |
| 205 | 6.65 | O=S1(=O)Nc2ccc(C(F)(F)F)c(n2)-c2cccnc2O[C@H]2CCC[C@H](CCC2)Oc2cccc1n2 [Compound 104, (4^1s,4^5s)-1^3-(trifluoromethyl)-3,5-dioxa-7-thia-8-aza-1,6(2,6),2(3,2)-tripyridina-4(1,5)-cyclooctanacyclooctaphane 7,7-dioxide] |
| 802 | 6.19 | CCN1CCCCCc2ccccc2-c2nc(ccc2C(F)(F)F)NS(=O)(=O)c2cccc1n2 [Compound 18, 6-ethyl-2^3-(trifluoromethyl)-4-thia-3,6-diaza-2,5(2,6)-dipyridina-1(1,2)-benzenacycloundecaphane 4,4-dioxide] |
| 308 | 5.73 | O=S1(=O)Nc2ccc(C(F)(F)F)c(n2)-c2ccccc2CCCCCN(CCN2C[C@H](O)[C@@H](O)C2)c2cccc1n2 [Compound 123, 6-(2-((3S,4S)-3,4-dihydroxypyrrolidin-1-yl)ethyl)-2^3-(trifluoromethyl)-4-thia-3,6-diaza-2,5(2,6)-dipyridina-1(1,2)-benzenacycloundecaphane 4,4-dioxide] |
| 490 | 5.79 | Cc1ccc2nc1-c1ccccc1CCCCCN(CCCCO)c1cccc(n1)S(=O)(=O)N2 [Compound 19, 6-(4-hydroxybutyl)-2^3-methyl-4-thia-3,6-diaza-2,5(2,6)-dipyridina-1(1,2)-benzenacycloundecaphane 4,4-dioxide] |
| 188 | 5.61 | NCCN1CCCCc2ccccc2-c2nc(ccc2C(F)(F)F)NS(=O)(=O)c2cccc1n2 [Compound 130, 6-(2-aminoethyl)-2^3-(trifluoromethyl)-4-thia-3,6-diaza-2,5(2,6)-dipyridina-1(1,2)-benzenacyclodecaphane 4,4-dioxide] |

| Structure (SMILES) | Emax [%] | pEC50 |
| --- | --- | --- |
| O=S1(=O)Nc2ccc(C(F)(F)F)c(n2)-c2cccnc2OCCCCCOc2cccc1n2 [Compound 103, 2^3-(trifluoromethyl)-6,12-dioxa-4-thia-3-aza-1(3,2),2,5(2,6)-tripyridinacyclododecaphane 4,4-dioxide] | 197 | 5.86 |
